Measured values taken from patent US20260248771A1, “VALBENAZINE, A VMAT2 INHIBITOR, AS A FREE BASE A TOSYLATE OR DITOSYLATE SALT, FOR USE IN THE TREATMENT OF CHOREA ASSOCIATED WITH HUNTINGTON'S DISEASE” (Neurocrine Biosciences, Inc., priority 2022, published 2026).

Tested on: subjects with HD
Assay: Phase 3 study: Neuro-QoL Lower Extremity Function T-score
Type: in vivo, human
Description: As used herein, “Neuro-QoL” is a set of self-report measures that assesses the health-related quality of life (HRQOL) of adults and children with neurological disorders. Neuro-QoL Upper Extremity Function scale measures one's ability across fine motor and activities of daily living involving digital, manual and reach-related function and self-care. Neuro-QoL Lower Extremity Function scale measures one's ability to carry out various activities involving the trunk region and increasing degrees of bodily movement, ambulation, balance or endurance. See, National Institute of Neurological Disorders and Stroke (NINDS). User Manual for the Quality of Life in Neurological Disorders (Neuro-QoL) Measures, Version 2.0, March 2015, which is incorporated herein by reference in its entirety.
A Phase 3, randomized, double-blind, placebo-controlled study to evaluate the efficacy, safety, and tolerability of once-daily valbenazine in subjects with HD was conducted. The study included a 4-week screening period, an 8-week dose-adjustment period, a 4-week maintenance period, and a final study visit 2 weeks following the final dose of study drug. […]

COc1cc2c(cc1OC)[C@H]1C[C@@H](OC(=O)[C@@H](N)C(C)C)[C@H](CC(C)C)CN1CC2 [Valbenazine, (S)-2-amino-3-methyl-butyric acid (2R,3R,11bR)-3-isobutyl-9,10-dimethoxy-1,3,4,6,7,11b-hexahydro-2H-pyrido[2,1-a]isoquinolin-2-yl ester]
Neuro-QoL Lower Extremity Function T Score CFB @ week 12, LS Mean (valbenazine group): −0.27
Neuro-QoL Lower Extremity Function T Score CFB @ week 12, LS Mean, Difference (valbenazine vs placebo): −0.88
